From patent US7417026B2, “Mobilization of hematopoietic cells” (Children's Hospital Medical Center, priority 2003, dated 2008)

Key:
HSC/progenitor cells [1] = assay: Mobilization of progenitor cells into peripheral blood, normal mice; format: in vivo; conditions: intraperitoneal injection, three doses
Protocol: In FIG. 4, NSC23776, an inhibitor of GEF interaction with Rac proteins, or PBS as a control was administered by intraperitoneal injection to normal mice. At the indicated time points after injection, mice were bled and analyzed for the number of progenitor cells in the peripheral blood. Three doses of drug were administered. Each point represents samples from 6 mice, mean +/− SEM.

HSC/progenitor cells [2] = assay: Mobilization of progenitor cells into peripheral blood, Rac2-/- mice; format: in vivo; conditions: intraperitoneal injection, three doses
Protocol: In FIG. 5, NSC23776 or PBS as a control was administered by intraperitoneal injection to normal mice and mice with a genetic deficiency of Rac2 (Rac2−/− mice). At the indicated time points after injection, mice were bled and analyzed for the number of progenitor cells in the peripheral blood. Three doses of drug were administered. Each point represents samples from 6 mice, mean +/− SEM. For information on how to make and use NSC23776 and other small molecule inhibitors, see copending U.S. Provisional application 60/523,599, filed Nov. 20, 2003.

WT neutrophils [3] = conditions: 10 μM
Protocol: Neutrophil chemotaxis in response to 10 μM formyl-methionyl-leucyl-phenylalanine (fMLP) was examined in Boyden chamber assays.

WT neutrophils [4] = conditions: 10 μM; remark: listed apart in the source
Excerpt: (§2) It was next determined whether, in a manner similar to HSC/P, p42/p44 MAPKs were regulated via Rac proteins in neutrophils.

WT neutrophils [5] = conditions: 10 μM; remark: listed apart in the source
Excerpt: as §2

WT HSC/P cells [6] = assay: Apoptosis of HSC/P following SCF stimulation (Annexin-V); format: cell-based, mice; conditions: concentration not given
Excerpt: By contrast, Rac2 appears to play no role in proliferation but regulated cell survival through the known anti-apoptotic protein Akt (Kennedy, et al. Genes Dev. 11, 701-13, 1997). Rac2 but not Rac1 deficiency was associated with increased frequency of both early (Annexin-V+) and late (Annexin V+/7AAD+) apoptotic cells (FIG. 2F) and expression of the Rac2 cDNA in Rac2−/− HSC/P led to a complete reversal of the apoptotic phenotype [4.4+0.8 vs. 6.6+1.3, vs. 3.1+0.7; % Annexin-V+ cells, WT vs. Rac2−/− vs. Rac−/− (Rac2+); p<0.01 Rac2−/− vs. Rac2−/− (Rac2+)]. Loss of both Rac1 and Rac2 activities was associated with a more severe apoptotic phenotype compared with deficiency of only Rac2 GTPase activity (FIG. 2D). […] The reduced Akt activation was close to normal in Rac1−/− cells.

p42/p44 = conditions: neutrophils, 10 μM
Excerpt: as §2

ERK = conditions: HSC/P cells, 30 μM
WT HSC/P cells [7] = assay: Cell cycle analysis of HSC/P after SCF stimulation (cells in S+G2/M); format: cell-based, mice; conditions: 30 μM
Protocol: To further analyze the mechanism, by which Rac1 affects proliferation in primitive HSC/P cells, cell cycle analysis was performed after stimulation with 100 ng/ml SCF. […] In contrast, the number of Rac2−/− cells in S+G2/M phases was similar to WT cells. The delay in entry into S phase was significant by 24 hours after SCF addition and persisted at 48 hours. This defect in cell cycle progression appeared directly related to Rac1 deficiency, since expression of Rac1 protein using retrovirus-mediated gene transfer restored cycle progression in Rac1−/− cells [33+4 vs. 19+3 vs. 34+3; % cells in S+G2/M, WT vs. Rac1−/− vs. Rac1−/− (Rac1+), p<0.01 Rac1−/− vs. Rac1−/− (Rac1+)].

RhoA-F30L [8] = target: T1, RhoA-F30L (Homo sapiens, UniProt P61586, F30L); assay: Downregulation of RhoA-F30L biochemical activity by retrovirally expressed RhoGAP chimera; format: cell-based; conditions: for biochemical activity of F30LRhoA: high copy number retroviral vector SF91-EMCV-IRES-GFP
T1 construct: expressed in transfected cells
T1 sequence (P61586 whole entry F30L): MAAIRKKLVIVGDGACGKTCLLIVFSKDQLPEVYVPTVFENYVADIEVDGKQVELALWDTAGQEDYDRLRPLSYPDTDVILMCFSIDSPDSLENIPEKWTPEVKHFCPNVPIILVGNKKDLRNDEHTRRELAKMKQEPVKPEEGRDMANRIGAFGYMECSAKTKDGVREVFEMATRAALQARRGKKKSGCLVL
Excerpt: (§1) Like other cases of retrovirus-based gene transfer approach, the copy number of the introduced RhoGAP-Rho chimeras in the host cells will likely to be important for the efficacy of their application.

RhoA-F30L [9] = target: T1, RhoA-F30L; assay: RhoA-F30L-induced transformation; format: cell-based; conditions: for RhoA-F30L-induced transformation: high copy number retroviral vector SF91-EMCV-IRES-GFP
Excerpt: as §1

## CCN(CC)CCCC(C)Nc1nc(C)cc(Nc2ccc3nc(C)cc(N)c3c2)n1 (stereo not drawn) [NSC23776]
HSC/progenitor cells [1]
  mobilization of HSC/progenitor cells: does indeed lead to mobilization
HSC/progenitor cells [2]
  mobilization of HSC/progenitor cells: additive effect

## N#CC(=C(/N)Sc1ccccc1N)/C(C#N)=C(\N)Sc1ccccc1N [U0126]
WT neutrophils [3]
  cell migration: significant decrease
WT neutrophils [4]
  cortical actin formation: impaired cortical actin formation
WT neutrophils [5]
  percentage of NBT+ cells: no change
WT HSC/P cells [6]
  increase in apoptosis: An increase in apoptosis was not seen
p42/p44
  phosphorylation of p42/p44: abrogates
ERK
  ERK activation: inhibited
WT HSC/P cells [7]
  number of cells in S+G2/M: significant reduction

## p190: GAP-containing protein fraction of human p190, the predominant GAP for RhoA, expressed alone
RhoA-F30L [8]
  biochemical activity of F30LRhoA: did not affect
RhoA-F30L [9]
  RhoA-F30L-induced transformation: did not affect

B1: p190-RhoA-C: p190GAP fused with the RhoA C-terminal sequence, expressed from a retroviral vector (protein)
chain: VPLTTVVTPEKPIPIFIERCIEYIEATGLSTEGIYRVSGNKSEMESLQRQFDQDHNLDLAEKDFTVNTVAGAMKSFFSELPDPLVPYSMQIDLVEAHKINDREQKLHALKEVLKKFPKENHEVFKYVISHLNRVSHNNKVNLMTSENLSICFWPTLMRPDFSSMDALTATRSYQTIIELFIQQCPFFFYNRPISEPPGAALAPLQPWHPLSPSSPLHLLPVSHHLPSHLLQPLSPQCSHCSPLSSKPNTRCEPPQPRKQENQLSSLQARRGKKKSGCLVL
modifications: chimeric fusion peptide/p190RhoGAP plus c-terminus tail section of the targeted GTPase
RhoA-F30L [8]; expression with MIEG3
  biochemical activity of RhoA-F30L: insufficient
RhoA-F30L [8]
  biochemical activity of F30LRhoA: specifically decrease
RhoA-F30L [9]; expression with MIEG3
  transforming activity of RhoA-F30L: insufficient
RhoA-F30L [9]
  RhoA-F30L-induced transformation: specifically decrease
